Values after ≈ are worked out from the molar mass of the structure shown. Like-named read-outs stand apart in the source and are kept apart here.
Assays:
[1] = test system: MRSA isolates; conditions: 43 MRSA isolates from adults with community respiratory infections; cited from earlier work
[2] = test system: #243 E. faecium van B ST17; experiment: Antibacterial assay (MIC), VRE strain #243, Enterococossel Broth, Example 1; format: cell-based, Enterococcus faecium; conditions: Enterococcus faecium, VRE, 24 h, read-out: 243 (minimum inhibitory concentration)
Procedure, shortened: (§1)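 Broth microdilution in Enterococossel Broth, triplicate twofold dilutions from 125 to 0.98 ug/ml, inoculated with 1/1000-diluted overnight E. faecium van B culture. Incubated 24 h at 37° C with slow rotation. MIC read as lowest concentration without pellet or black medium; first-row DMSO 2.5%.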

[3] = test system: E. faecium (VRE, vanA genes); conditions: typical for VRE E. faecium in hospitals; cited from earlier work
[4] = test system: #449 E. faecium van B ST17; experiment: Antibacterial assay (MIC), VRE strain #449, Enterococossel Broth, Example 1; format: cell-based, Enterococcus faecium; conditions: Enterococcus faecium, VRE, 24 h, read-out: 449 (minimum inhibitory concentration)
Procedure, shortened: as §1

[5] = test system: E.f243; experiment: Antibacterial screening (MIC) of compounds of Example 2, E.f243; format: cell-based, Enterococcus faecium
Procedure: (§2) • All assays used the Staphylococcus aureus strain ATCC 6538P. • Assays described in Chapter 5 additionally used the vancomycin-resistant enterococci and vancomycin-sensitive enterococci strains Ef243, Ef449, Ef820 and Ef487. Culture Media • Mueller-Hinton Broth Medium (MHB): MHB (Oxoid CM405) was prepared with final concentrations of […] MgCl2 and 2 μg/mL CaCl2. Culture medium was pre-warmed for approximately 2-3 h at 37° C. before use. • Mueller-Hinton Agar Medium (MHA): MMB containing 1.5% Agar (Merck Agar 1.01614). Maintenance of Bacteria • From a thawed cryovial, the bacteria was streaked onto MHA and the plate incubated overnight at 37° C. • From this plate, 10 cryovials were prepared by looping several colonies into 0.5 mL of 20% glycerol solution. The cryovials were immediately stored at −140° C. Preparation of Seed Cultures • A cryovial was removed from −140° C. storage and thawed at room temperature. • An MHA plate was streaked with a loopful of bacterial suspension and incubated overnight at 37° C. to create a parent plate (P1). • A daughter plate (D1) was streaked from the parent plate and incubated overnight at 37° C. […] The second parent plate (P2) was used to generate two additional daughter plates using the procedure outlined above before being discarded. • Cryovials were used twice to prepare parent plates (P1 and P2) before being discarded. […] A vancomycin control set (triplicate) and a compound negative control set (triplicate) were also included on each plate (FIG. 1). • The inoculated culture medium was incubated at 37° C. for 30 min, with shaking at 130 rpm. • Using a multichannel pipette, the contents of the first row were mixed before 50 μL was transferred to the second row. The pipette tips were changed and the process repeated by 50 μL of the mixed broth solutions in the second row being transferred to the third row. This process was repeated until the last row contained either the diluted test compound or a control (vancomycin or compound-negative). […] Antibacterial Testing of Compounds of Example 2 Introduction
(§3) The specific testing procedures and protocols are outlined in the section “Antibacterial Screening Methodology for the Compounds of Example 2”.
(§4) Vancomycin was used as the standard/control.

[6] = test system: E.f449; experiment: Antibacterial screening (MIC) of compounds of Example 2, E.f449; format: cell-based, Enterococcus faecium
Procedure: as §2, §3, §4

[7] = test system: Staphylococcus aureus (ATCC 6538P); experiment: Antibacterial assay (MIC), Staphylococcus aureus ATCC 6538P, Luria Broth, Example 1; format: cell-based; conditions: Staphylococcus aureus, ATCC6538P, 24 h, read-out: Sa (minimum inhibitory concentration)
Procedure, shortened: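 Broth microdilution in Luria Broth, 2-fold series from 125 to 0.98 ug/ml in triplicate, with 1/1000-diluted overnight culture; up to 2.5% DMSO. Incubated 24 hrs at 37° C with slow rotation; MIC read as lowest concentration giving a clear well without bacterial pellet.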

[8] = test system: #987 E. faecium van B ST39; experiment: Antibacterial assay (MIC), VRE strain #987, Enterococossel Broth, Example 1; format: cell-based, Enterococcus faecium; conditions: Enterococcus faecium, VRE, 24 h, read-out: 987 (minimum inhibitory concentration)
Procedure, shortened: (§5)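 Broth microdilution MIC vs E. faecium VRE strains grown in Enterococossel broth, inoculum 1/1000 of overnight culture; compounds tested in triplicate at 125–0.98 ug/ml (2-fold), top-well DMSO 2.5%. Plates incubated 24 h at 37 °C; MIC read as clear well, no pellet and no black colouring of medium.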

[9] = test system: #820 E. faecium van A ST17; experiment: Antibacterial assay (MIC), VRE strain #820, Enterococossel Broth, Example 1; format: cell-based, Enterococcus faecium; conditions: Enterococcus faecium, VRE, 24 h, read-out: 820 (minimum inhibitory concentration)
Procedure, shortened: as §5

[10] = test system: E.f820; experiment: Antibacterial screening (MIC) of compounds of Example 2, E.f820; format: cell-based, Enterrococci faecium; conditions: for Antibacterial activity μg/mL, E.f820: Example 2 compounds, fully vancomycin-resistant strain E.f820
Procedure: as §2, §3, §4

[11] = test system: Staphylococcus aureus strain ATCC 6538P; experiment: Antibacterial screening (MIC) of compounds of Example 2, S. aureus, Mueller-Hinton broth; format: cell-based; conditions: for MIC: Staphylococcus aureus, ATCC6538P
Procedure: Antibacterial Screening Methodology for Compounds of Example 2
as §2, §3
The antibacterial activity results are measured by minimum inhibitory concentration (MIC), which is the lowest concentration of compound necessary to prevent bacterial growth.

[12] = test system: E.f987; experiment: Antibacterial screening (MIC) of compounds of Example 2, E.f987; format: cell-based, Enterococcus faecium; conditions: for Antibacterial activity μg/mL, E.f987: Example 2 compounds, enterococci strain E.f987
[13] = test system: E. faecium isolate (VanD-type); conditions: VanD-type E. faecium isolate from the United States, constitutively resistant; cited from earlier work
[14] = test system: strains of MRSA which have intermediate resistance to glycopeptides; conditions: cited from earlier work
[15] = test system: S. aureus; conditions: when penicillin was introduced in mid-1940s; cited from earlier work
[16] = target: T1, HIV integrase enzyme (Human immunodeficiency virus type 1 group M subtype B, UniProt P04585); experiment: Cross testing of antibacterial compounds for ability to inhibit the HIV integrase enzyme; format: biochemical; conditions: Example 2 compounds; compared with lead 88
T1 construct: against the HIV integrase enzyme
Procedure: The results for the screening of the four target molecules 165-168 against the HIV integrase enzyme yielded some encouraging results which supported the proposed mechanism of binding in the active binding trench of the HIV integrase enzyme. The testing procedure for the four target compounds differed from the original screening protocols employed. The original screening measured inhibition against the 3′ processing function of the enzyme at the fixed concentration of 50 μg/mL, whereas the four target molecules were tested in an assay adapted from a literature procedure,^107 which measures inhibition against the 3′ strand transfer function of the enzyme. This allows a result to be obtained as an inhibition constant (IC50) concentration, which is the standard measurement of inhibition within the literature. Along with the four target molecules, 88 was also re-tested in the 3′ strand transfer assay to determine the IC50 for direct comparison with the literature.
After these compounds and the computer modelling studies had become established, all compounds that were sent for screening in the antibacterial assay were then also cross tested for their ability to inhibit the HIV integrase enzyme.

Question: For `CN[C@H](CC(C)C)C(=O)N[C@H]1C(=O)N[C@@H](CC(N)=O)C(=O)N[C@H]2C(=O)N[C@H]3C(=O)N[C@H](C(=O)N[C@H](C(=O)O)c4cc(O)cc(O)c4-c4cc3ccc4O)[C@H](O)c3ccc(c(Cl)c3)Oc3cc2cc(c3O[C@@H]2O[C@H](CO)[C@@H](O)[C@H](O)[C@H]2O[C@H]2C[C@](C)(N)[C@H](O)[C@H](C)O2)Oc2ccc(cc2Cl)[C@H]1O` [Vancomycin, vancomycin, reference compound], which susceptibility rates [1] is on record?
Answer: 100%

Question: And the MIC [2]?
Answer: < 0.98 µg/mL

Question: And the “minimum inhibitory concentrations (MICs)” value [3]?
Answer: > 128 µg/mL

Question: And the MIC [4]?
Answer: 15.7 to 62.5 µg/mL (≈ 10.8 to 43.1 µM)

Question: What about the MIC ([5]; Enterococcus faecium, read-out: Antibacterial activity μg/mL, E.f243) of the same compound?
Answer: 1.95 µg/mL (≈ 1.35 µM)

Question: What about the MIC ([6]; Enterococcus faecium, read-out: Antibacterial activity μg/mL, E.f449) of the same compound?
Answer: 62.5 µg/mL (≈ 43.1 µM)

Question: And the MIC [7]?
Answer: 0.99 to 15.6 µg/mL (≈ 0.683 to 10.8 µM)

Question: And the MIC [8]?
Answer: < 0.98 µg/mL

Question: What about the MIC [9] of the same compound?
Answer: > 62.6 µg/mL

Question: What about the “Antibacterial activity μg/mL, E.f820” value [10] of the same compound?
Answer: >125 µg/mL

Question: What about the MIC ([10]; read-out: Antibacterial activity μg/mL, E.f820) of the same compound?
Answer: > 125 µg/mL

Question: And the MIC ([11]; 18 h, read-out: Antibacterial activity (MIC μg/mL))?
Answer: 1.25 to 2.5 µg/mL (≈ 0.863 to 1.73 µM)

Question: What about the MIC ([11]; read-out: Antibacterial activity μg/mL, S.a) of the same compound?
Answer: 1.95 µg/mL (≈ 1.35 µM)

Question: What about the MIC ([12]; Enterococcus faecium, read-out: Antibacterial activity μg/mL, E.f987) of the same compound?
Answer: < 0.98 µg/mL

Question: And the “Antibacterial activity μg/mL, E.f987” value [12]?
Answer: <0.98 µg/mL

Question: With teicoplanin as the compound, how does the “minimum inhibitory concentrations (MICs)” value [3] read?
Answer: > 16 µg/mL

Question: What about the MIC [13] of the same compound?
Answer: 4 µg/mL

Question: For `CC[C@H]1OC(=O)[C@H](C)[C@@H](O[C@H]2C[C@@](C)(OC)[C@@H](O)[C@H](C)O2)[C@H](C)[C@@H](O[C@@H]2O[C@H](C)C[C@H](N(C)C)[C@H]2O)[C@](C)(O)C[C@@H](C)C(=O)[C@H](C)[C@@H](O)[C@]1(C)O` [erythromycin], which susceptibility rates [1] is on record?
Answer: 12%

Question: Which melting point does the source give for `C=CCOc1ccc2ccccc2c1-c1c(OCC(=O)N[C@H](CCCNC(=N)N)C(=O)Nc2cccc(C(=O)NO)c2)ccc2ccccc12.Cl` here?
Answer: 158 to 160 °C

Question: For `Oc1cc(Cl)ccc1Oc1ccc(Cl)cc1Cl` [triclosan], which “minimal bactericidal concns. (MBCs), increased value” ([14]; MRSA with intermediate resistance to glycopeptides, decreased susceptibility to biocides) is on record?
Answer: 3.12 mg 1-1

Question: What about the “minimal bactericidal concns. (MBCs), starting value” ([14]; value from which the MBC increased) of the same compound?
Answer: 0.002 mg 1-1

Question: With penicillin as the compound, how does the “susceptible S. aureus” value [15] read?
Answer: ~94%

Question: With `CCCOc1ccc2ccccc2c1-c1c(OCC(=O)N[C@H](CCCN)C(=O)Nc2cccc(C(=O)NO)c2)ccc2ccccc12.Cl` [Compound 163] as the compound, how does the “ability to inhibit the HIV integrase enzyme (in words)” value [16] read?
Answer: almost as active as the original lead 88

Question: And the “Antibacterial activity μg/mL, E.f243” value ([5]; Example 2 compounds, enterococci strain E.f243)?
Answer: >125 µg/mL

Question: What about the “Antibacterial activity μg/mL, E.f449” value ([6]; Example 2 compounds, enterococci strain E.f449) of the same compound?
Answer: >125 µg/mL

Question: What about the “Antibacterial activity μg/mL, E.f820” value [10] of the same compound?
Answer: >125 µg/mL

Question: And the “Antibacterial activity μg/mL, S.a” value ([11]; Example 2 compounds (linear cationic peptides), S. aureus, vancomycin-susceptible strain)?
Answer: 15.6 µg/mL

Question: What about the “Antibacterial activity μg/mL, E.f987” value [12] of the same compound?
Answer: >125 µg/mL

Reference: US8039430B2 (University of Wollongong, priority 2005, dated 2011)
